From patent publication USH1168H, “Inhibitors of protein kinase C activity as protectors against septic shock and reducers of ARDS” (priority 1991, dated 1993)
“Also recorded” adds a separate entry of the source.

Columns and labels:
platelets = conditions: pretreatment; stimulation with thrombin, OAG, linoleic or linolelaidic acid (25); cited from earlier work
endothelial cells [1] = conditions: literature (1, 2); cited from earlier work
rat aortic rings [2] = assay: Direct contraction of rat aortic rings by phorbol dibutyrate; format: cell-based; set-up: Emax: dose or concentration left out as unconfirmed; conditions: for EC50: read-out: EC50 for contraction by PDB
Experimental: Four rings were prepared from each rat and one ring allocated into each medium formulation. Data is presented as in FIG. 1.
(§1) Tissue preparation and incubation. Male Sprague-Dawley rats (250-350 g, Taconic Farms, Germantown, N.Y.) were used. Rat thoracic aortic rings were prepared and incubated as detailed by McKenna (14). In brief, 4 or 6 rings were prepared from each rat. Care was taken during dissection to maintain the patency of the endothelium. Some aortas were de-endothelialized before sectioning into rings by perfusion with phosphate buffered saline (PBS) containing 1% deoxycholate for 30 sec followed by a PBS and bubble rinse for 5 min. Rings were incubated in DME (Dulbecco's Modified Eagle's medium) supplemented with 1% fetal calf serum, 100 μg/ml streptomycin, and 100 U/ml penicillin. During incubation, the rings were exposed to combinations of LPS (10 or 35 ng/ml), H7 (25 μM), HA1004 (N-(2-guanidinoethyl)-5-isoquinolinesulfonamide) (25 μM), sphingosine (20 μM), or their vehicles. […] Rings used in measures of contractile performance were placed individually in Petri dishes containing 1.2 ml DME and were distributed so that tissue isolated from each aorta was allocated to every combination of treatments within an experiment. […] All tissue isolated from an aorta (six rings) was allocated to a single treatment. The media and rings were rotated gently for 16-18 hr in an incubator at 37° C. under a 95% O2 -5% CO2 atmosphere.
(§2) Measurement of aortic ring contraction. After incubation, rings were mounted in tissue baths, equilibrated, and pre-contracted as previously detailed (14). These procedures required approximately 90 min. Rings were maintained in Krebs Ringer Bicarbonate buffer (KRB, 14). Contractions by six or eight rings were measured simultaneously and recorded on multichannel strip chart recorders. […] Other rings were contracted by withdrawing KRB from the tissue baths and adding increasing volumes of a high KCl KRB (120 mM, made by equimolar substitution of KCl for NaCl) to the baths to yield final KCl concentrations of 10 to 80 mM. All rings were blotted and weighed after experiments were completed.
(§3) Statistics. […] Tests for differences between EC50 values were based on log EC50 values (17). EC50 values were then converted to […] means to allow expression as nanomolar concentrations. Examination of differences among four or six treatment means was by randomized blocks analysis of variance; if significant differences were present, then pairs of means were tested by Student-Newman-Keuls a posteriori tests (18). Paired t-tests were used to assess differences between two treatment means. […] Differences with probabilities of 0.05 or less were accepted as significant. All data are expressed as means±SEM.

rat aortic rings [3] = assay: NE-induced contraction of rat aortic rings after 16 h incubation with phorbol dibutyrate; format: cell-based; set-up: contractions to NE; vascular suppression: dose or concentration left out as unconfirmed; conditions: for EC50: Rattus norvegicus, 16 h
Experimental: (§4) (Panel B) Contraction to KCl by rings incubated and denoted with the same symbols as detailed above. Four rings were prepared from each rat and one ring allocated into each medium formulation to evaluate responses to NE. Rings were similarly prepared to determine responses to KCl. Data presented as in FIG. 1. N=6 rats apiece for assessment of responses to NE and KCl.
(§5) (Panel B) Contraction to KCl by rings incubated and denoted with the same symbols as detailed above. Four rings were prepared from each rat and one ring allocated into each medium formulation. Data is presented as in FIG. 1. N=8 rats for assessment of responses to both NE and KCl.
as §1, §2, §3

rat aortic rings [4] = assay: KCl-induced contraction of rat aortic rings after 16 h incubation with phorbol dibutyrate; format: cell-based; conditions: for EC50: Rattus norvegicus, 16 h
Experimental: as §4, §5, §1, §2, §3

[5] = test system: Rabbit aortic smooth muscle cells; conditions: literature (29); cited from earlier work
[6] = test system: Rabbit aortic smooth muscle cells; conditions: literature; cited from earlier work
PKC = conditions: literature (33,34); cited from earlier work
[7] = test system: intact endothelium rat aortic rings; assay: NE-induced contraction of intact rat aortic rings after 16 h incubation with LPS and/or PKC inhibitors; format: cell-based; conditions: for EC50: Rattus norvegicus, 16 h, intact endothelium, read-out: EC50 value for NE stimulated contraction (EC50 of the agonist NE)
Experimental: FIG. 1 is a graph showing contraction to cumulative doses of NE by rat aortic rings incubated for 16 hr in combinations of control, LPS (endotoxin or lipopolysaccharide), H7, and N-(2-guanidinoethyl)-5-isoquinolinesulfonamide (HA1004; a negative control for H7) treated media. (Panel A) Responses by rings incubated in medium only (open circles), medium plus H7 (25 μM, closed circles), medium containing LPS (10 ng/ml, open triangles), and medium containing LPS plus H7 (closed triangles). (Panel B) For clarity in presentation, responses by rings incubated in medium only (open circles) and LPS treated medium (open triangles) are reproduced from Panel A. Additional rings were incubated in medium plus HA1004 (25 μM, closed circles), and medium containing LPS plus HA1004 (closed triangles). Six rings were prepared from each rat and one ring allocated into each medium formulation. […] The curves are the best fit of the data by nonlinear least squares to a polynomial model. N=8 rats.
as §1, §2, §3

[8] = test system: intact endothelium rat aortic rings; assay: KCl-induced contraction of intact rat aortic rings after 16 h incubation with LPS and/or PKC inhibitors; format: cell-based; conditions: for EC50: Rattus norvegicus, 16 h, intact endothelium, read-out: EC50 value for KCl stimulated contraction (EC50 of the agonist KCl)
Experimental: FIG. 2 is a graph showing contraction to cumulative doses of KCl by rat aortic rings incubated for 16 hr in combinations of control, LPS, H7, and HA1004 treated media. (Panel A) Response by rings incubated in medium only (open circles), medium plus H7 (25 μM, closed circles), medium containing LPS (10 ng/ml, open triangles), and medium containing LPS plus H7 (closed triangles). (Panel B) For clarity in presentation, responses by rings incubated in medium only (open circles) and LPS treated medium (open triangles) are reproduced from Panel A. Additional rings were incubated in medium plus HA1004 (25 μM, closed circles), and medium containing LPS plus HA1004 (closed triangles). Rings were prepared and data is presented as described in FIG. 1. N=6 rats.
as §1, §2, §3

endothelial cells [9] = conditions: literature (3); cited from earlier work
[10] = test system: deendothelialized rat aortas; conditions: literature (26); cited from earlier work
human neutrophils = conditions: PMA alone (31); cited from earlier work
[11] = LPS 10 ng/ml plus inhibitor 25 μM
[12] = LPS-treated media (10 ng/ml), alone or plus inhibitor 25 μM
[13] = control media (no LPS) plus inhibitor 25 μM
[14] = inhibitor 25 μM by itself, no LPS

polymyxin B
platelet aggregation after stimulation (platelets): blocked

CN[C@@H]1C[C@H]2O[C@@](C)([C@@H]1OC)n1c3ccccc3c3c4c(c5c6ccccc6n2c5c31)C(=O)NC4 [staurosporine]
adhesive proteins on endothelial cell surfaces (endothelial cells [1]): reduced | platelet aggregation after stimulation (platelets): blocked

CCCC(=O)O[C@@H]1[C@@H](C)[C@@]2(O)[C@@H](C=C(CO)C[C@@]3(O)C(=O)C(C)=C[C@@H]23)[C@@H]2C(C)(C)[C@]12OC(=O)CCC [4α-PDB, 4-α-phorbol-12,13-dibutyrate]
contraction of aortic rings by 4α-PDB itself (rat aortic rings [2]; concentrations up to 10 μM (data not shown)): could not contract aortic rings at concentrations up to 10 μM | contractions to NE; vascular suppression (rat aortic rings [3]): significantly impaired contractions to NE and KCl; also recorded: equally effective at causing vascular suppression | alterations in EC50 values for NE (rat aortic rings [3]; 10 μM 4α-PDB): no significant alterations in EC50 values for the agonists | EC50 (rat aortic rings [3]; read-out: EC50 value for NE contraction (EC50 of the agonist NE), rings incubated with 4α-PDB 10.0 μM, 16 h): 0.286 µM | alterations in EC50 values for KCl (rat aortic rings [4]; 10 μM 4α-PDB): no significant alterations in EC50 values for the agonists | contractions to KCl (rat aortic rings [4]; 10 μM 4α-PDB): significantly impaired contractions to NE and KCl | EC50 (rat aortic rings [4]; read-out: EC50 value for KCl contraction (EC50 of the agonist KCl), rings incubated with 4α-PDB 10.0 μM, 16 h): 28000 µM

CCCCCCCCCCCCCC(=O)O[C@@H]1[C@@H](C)[C@@]2(O)[C@@H](C=C(CO)C[C@]3(O)C(=O)C(C)=C[C@@H]23)[C@@H]2C(C)(C)[C@]12OC(C)=O [TPA]
whole blood serum induced intracellular Ca^2+ mobilization [5]: inhibits whole blood serum induced intracellular Ca^2+ mobilization | cell proliferation [6]: modulates cell proliferation

lipid A
activation of PKC in vitro (PKC): can directly activate PKC in vitro

CC1CNCCN1S(=O)(=O)c1cccc2cnccc12 (stereo not shown) [H7, 1-(5-isoquinolinylsulfonyl)-2-methyl piperazine]
EC50 and Emax (sensitivity and maximum contraction) to NE versus control tissue [7, 11]: not significantly different from control tissue | EC50 [7, 12]: 0.099 µM | EC50 [7, 13]: 0.051 ± 0.015 µM | blocking of LPS effects on contraction to NE ([7]; co-incubation, inhibitor 25 μM, LPS 10 ng/ml): blocked | contractile function / sensitivity to NE [7, 14]: little change in contractile function | abrogation of LPS effects on contractile function ([7]; intact rings, H7 25 μM): clearly abrogated the majority of the deleterious effects of LPS on rat aortic tissue contractile function | EC50 and Emax values to KCl versus control tissue [8, 11]: did not vary significantly from control tissue | protection against LPS-induced contractile dysfunction (KCl) [8, 11]: shielded the tissue from LPS-induced contractile dysfunction | EC50 [8, 12]: 32000 µM | EC50 [8, 13]: 28000 ± 1000 µM | maximum contraction to KCl [8, 14]: significant increases in maximum contraction | sensitivity to KCl [8, 14]: no enhancement in sensitivity to KCl | adhesive proteins on endothelial cell surfaces (endothelial cells [1]): reduced | endothelial cell permeability response to inflammatory agents (endothelial cells [9]): abrogated | platelet aggregation after stimulation (platelets): blocked | blocking of PDB induced contraction [10]: ineffective blocker of PDB induced contraction | inhibition of KCl elicited contraction [10]: significantly inhibits KCl elicited contraction

CCCC(=O)O[C@@H]1[C@@H](C)[C@@]2(O)[C@@H](C=C(CO)C[C@]3(O)C(=O)C(C)=C[C@@H]23)[C@@H]2C(C)(C)[C@]12OC(=O)CCC [PDB, 4β-phorbol-12,13-dibutyrate]
EC50 (rat aortic rings [2]; Rattus norvegicus, 16 h): 0.041 ± 0.003 µM | EC50 (rat aortic rings [2]; Rattus norvegicus): 0.032 ± 0.004 µM | Emax (rat aortic rings [2]; Rattus norvegicus, read-out: maximum contraction caused by PDB): > 90% | EC50 (rat aortic rings [3]; read-out: EC50 value for NE contraction (EC50 of the agonist NE), rings incubated with 4β-PDB 0.1 μM, 16 h): 0.056 µM | EC50 (rat aortic rings [3]; read-out: EC50 value for NE contraction (EC50 of the agonist NE), rings incubated with 4β-PDB 1.0 μM, 16 h): 0.184 µM | EC50 (rat aortic rings [3]; read-out: EC50 value for NE contraction (EC50 of the agonist NE), rings incubated with 4β-PDB 10.0 μM, 16 h): 0.283 µM | EC50 (rat aortic rings [4]; read-out: EC50 value for KCl contraction (EC50 of the agonist KCl), rings incubated with 4β-PDB 0.1 μM, 16 h): 22000 µM | EC50 (rat aortic rings [4]; read-out: EC50 value for KCl contraction (EC50 of the agonist KCl), rings incubated with 4β-PDB 1.0 μM, 16 h): 27000 µM | EC50 (rat aortic rings [4]; read-out: EC50 value for KCl contraction (EC50 of the agonist KCl), rings incubated with 4β-PDB 10.0 μM, 16 h): 36000 µM

CCCCCCCCCCCCCC(=O)O[C@@H]1[C@@H](C)[C@@]2(O)[C@@H](C=C(CO)C[C@]3(O)C(=O)C(C)=C[C@@H]23)[C@@H]2C(C)(C)[C@]12OC(C)=O [PMA]
synthesis of PAF or LTB4 (human neutrophils): could not cause synthesis of either PAF or LTB4
